Measurements from patent US11234945B2, “Wound healing composition” (AGENCY FOR SCIENCE, TECHNOLOGY AND RESEARCH, priority 2016, dated 2022).
Entries after “also recorded” stand apart in the source; their conditions may differ.

Tests used:
N/TERT-1 keratinocytes = assay: In vitro scratch cell migration assay; assay type: cell-based, human; conditions: for cell migration / closure of scratch wound: control keratinocytes, 5 μM added 48 h prior to scratch, Incucyte wound width
Experimental: (§1) Human immortalized keratinocytes (Dickson et al., 2000), N/TERT-1 were obtained and cultured in keratinocyte serum-free media (K-SFM; Life Technologies; Thermo Fisher Scientific) supplemented with 25 μg/ml bovine pituitary extract (BPE), 0.2 ng/ml epidermal growth factor (EGF), and 0.3 mM CaCl2, as previously described (Rheinwald et al., 2002). To culture cells to 100% confluence for scratch assays, N/TERT-1 cells were first cultured to 50% confluence in supplemented K-SFM growth medium and then switched to a media with a 1:1 ratio mixture of supplemented K-SFM and DF-K (a mixture of calcium free, glutamine free DMEM (Hyclone; GE Healthcare) with Ham's F-12/GlutaMAX (Gibco; Life Technologies; Thermo Fisher Scientific) at 1:1 (vol/vol) supplemented with 5 μg/ml BPE, 0.2 ng/ml EGF, and 1.5 mM L-glutamine (Life Technologies; Thermo Fisher Scientific)) until 100% confluent. Human HEK293T cells (Dharmacon; GE Healthcare) were used for lentiviral production as the packaging cell line and cultured in high glucose DMEM (Hyclone; GE Healthcare) with 10% fetal calf serum. All cells were grown in a humidified incubator with 5% CO2 at 37° C.
In Vitro Scratch Cell Migration Assay
Confluent keratinocytes on ImageLock 96-well microplates (Essen BioScience, Inc) were scratched using a 96-pin wound maker (Essen BioScience, Inc) to create homogeneous, 700-800-μm wide scratch wounds in cell monolayers. Scratched cells were imaged using a real-time cell imaging system, IncuCyte, (Essen BioScience, Inc) to monitor cell migration. Putrescine, spermidine, or spermine (5 μM, Sigma-Aldrich) were added to cells and incubated for 48 h prior to scratch. For analysis of protein and RNA expression in migrating cells, keratinocytes were cultured to full confluency in a 6-well culture dish (Corning Costar) and scratched with the large end of a 1-mL pipette tip. At specific time points, the cells were either harvested in lysis buffer (150 mM sodium chloride, 1% (v/v) Triton X-100, 0.5% sodium deoxycholate, 1% (v/v) sodium dodecyl sulfate, 50 mM Tris-HCl, 1% (v/v) Nonidet P-40 (NP-40), 0.1 mM phenylmethylsulfonyl fluoride (PMSF), 5 mM EDTA, and 1% (v/v) protease and phosphatase inhibitor cocktail) for western blot or Trizol reagent (Life Technologies; Thermo Fisher Scientific) for RNA analysis.

[1] = tested on: intestinal epithelial cell; conditions: rodents, cited from earlier work
AMD1 = AMD1 up-regulation post scratch (immunofluorescence, western blot); assay type: cell-based, human; conditions: combined pre-treatment: 1 μM Tg 24 hours and 2 mM EGTA 1 hour; 6 hours post scratch
Experimental: (§2) It was then sought to determine if the up-regulation of AMD1 at the wound-edge was dependent on the wound-induced calcium wave. Human keratinocytes were labelled with the Ca^2+ probe Fluo-4 for 30 minutes prior to scratching to mimic a wound response. […] To assess the impact of a reduced calcium wave on up-regulation of AMD1, cells were pre-treated for 24 hours with 1 μM thapsigargin (Tg) and for 1 hour with 2 mM EGTA prior to scratch to deplete internal calcium stores and extracellular calcium, respectively.
(§3) Keratinocytes were seeded in glass-bottom 35-mm^2 dishes and cultured to full confluency in cell culture media. To deplete intracellular and extracellular Ca^2+ sources, cells were treated with 1 μM thapsigargin (Tg) (Sigma-Aldrich) for 24 hours and 2 mM ethylene glycol tetraacetic acid (EGTA, Sigma-Aldrich) for 1 hour prior to scratch. For Ca^2+ flux imaging, cells were incubated with Fluo-4,AM (Life Technologies; Thermo Fisher Scientific) and imaged with an automated confocal microscope (Spinning disk 3D-FRAP; Nikon Ti) at 0.2 second intervals for 5 minutes. Image analysis was performed using ImageJ software.

[2] = tested on: scratch-induced calcium wave in keratinocytes; assay: Calcium wave imaging after scratch (Fluo-4); assay type: cell-based, human; conditions: combined pre-treatment: 1 μM Tg 24 hours and 2 mM EGTA 1 hour prior to scratch
Experimental: as §2, §3

human ex vivo wounds = assay: Human ex vivo excisional skin wounds, epithelial tongue length; assay type: cell-based; conditions: 500 μM topically every 24 hours for 3 days; examined after 72 hours; PBS control
Text: Human skin samples were sourced from Dr T. C. Lim at the Yong Loo Lin School of Medicine, National University of Singapore. Written consent from participants was obtained in all cases. The study was done in accordance with the declaration of Helsinki and was approved by a local scientific ethics review board. The skin was further dissected into 6-mm cubes or circles. Excisional skin wounds of approximately 3 to 4 mm were made with surgical scissors. The ex vivo wounded skin explants were cultured at the air-liquid interface and treated topically with 500 μM of putrescine, spermidine, spermine or 1× phosphate-buffered saline (PBS) every 24 hours for 3 days. Non-wounded skin, day 0- and day 3-wounded biopsies were bisected, with half snap-frozen in Optimal Cutting Temperature Compound (OCT) and the other half fixed in 10% buffered formalin saline and embedded in paraffin for histological analysis.
Histological sections were prepared from wound tissue embedded in paraffin or snap-frozen in OCT. […] Images were acquired using a fluorescence microscope (Zeiss AxioImager Z1; Carl Zeiss). […]

sh-AMD1 keratinocytes = conditions: supplementation in cell culture media, listed as Spermine
Experimental: as §1
Confluent keratinocytes on ImageLock 96-well microplates (Essen BioScience, Inc) were scratched using a 96-pin wound maker (Essen BioScience, Inc) to create homogeneous, 700-800-μm wide scratch wounds in cell monolayers. […]

## NCCCCN [putrescine, butane-1,4-diamine, reference compound]
N/TERT-1 keratinocytes
  cell migration / closure of scratch wound: significantly impedes cell migration
N/TERT-1 keratinocytes; listed as Putrescine
  cell migration / closure of scratch wound: caused an inhibition of keratinocyte migration and a delay in closure of the scratch wound
[1]; supplementation after DFMO
  rescue of DFMO effect on intestinal epithelial cell migration and proliferation: can be rescued through supplementation with putrescine

## CCC(/C=N/N=C(N)N)=N\N=C(N)N [EGBG, reference compound]
N/TERT-1 keratinocytes; data not shown, concentration not given
  cell migration after AMD1 inhibitor: resulted in a similar delay in cell migration

## NCCCC(N)(C(=O)O)C(F)F (racemic) [DFMO, (RS)-2,5-diamino-2-(difluoromethyl)pentanoic acid]
[1]; ODC1 inhibition
  intestinal epithelial cell migration and proliferation: prevents intestinal epithelial cell migration and proliferation

## C/C=C(/C)C(=O)O[C@H]1C(C)=C2[C@H]([C@@H]1OC(=O)CCCCCCC)[C@@](C)(OC(C)=O)C[C@H](OC(=O)CCC)[C@@]1(O)[C@H]2OC(=O)[C@@]1(C)O [thapsigargin]
AMD1
  AMD1 up-regulation in scratched cells: completely abrogated; also recorded: completely abrogates AMD1 protein up-regulation
[2]
  propagation of calcium wave upon scratch: effectively prevented the calcium wave

## O=C(O)CN(CCN(CC(=O)O)CC(=O)O)CC(=O)O [EDTA]
AMD1
  AMD1 up-regulation in scratched cells: completely abrogates AMD1 protein up-regulation

## NCCCCNCCCN [spermidine, 1,4-butanediamine, N-(3-aminopropyl)]
Human ex vivo wounds
  epithelial tongue migration / wound repair: promoted a striking improvement in epithelial tongue migration; also recorded: promote wound repair of excisional human skin wounds

## O=C(O)CN(CCOCCOCCN(CC(=O)O)CC(=O)O)CC(=O)O [EGTA, ethylene glycol tetraacetic acid]
AMD1
  AMD1 up-regulation in scratched cells: completely abrogated
[2]
  propagation of calcium wave upon scratch: effectively prevented the calcium wave

## NCCCNCCCCNCCCN [spermine, 1,4-butanediamine, N,N′-bis(3-aminopropyl)]
N/TERT-1 keratinocytes
  cell migration / closure of scratch wound: promoted scratch wound closure in the control cells; also recorded: sufficient to drive increased cell migration
N/TERT-1 keratinocytes; listed as Spermine
  cell migration / closure of scratch wound: promotes the closure of scratch wounds in keratinocytes
N/TERT-1 keratinocytes; keratinocytes treated with EGBG, data not shown
  rescue of EGBG-induced delay in cell migration: similarly rescued by the addition of spermine
sh-AMD1 keratinocytes
  restoration of impaired cell migration in AMD1-knockdown keratinocytes: restores impaired cell migration in sh-AMD1 keratinocytes
Human ex vivo wounds
  epithelial tongue migration / wound repair: promoted a striking improvement in epithelial tongue migration; also recorded: promote wound repair of excisional human skin wounds
